{"source": "patent US12258422B2", "about": "“Cyclopeptide and method for preparing the same” (NATIONAL TSING HUA UNIVERSITY, priority 2020, dated 2025)", "key": {"MMP-1": {"test_system": "MMP-1", "assay": "MMP-1 inhibition test: TNF-α-induced MMP-1 level in skin fibroblasts, ELISA", "format": "cell-based, human", "details": "for inhibition of MMP-1: compared to 3.3 μM of RA (set as 100%); for IC50: Hs68, TNF-α induced, calculated from inhibition rate vs concentration (FIG. 1, FIG. 2); for MMP-1 Conc.: TNF-α 20 ng/mL, Hs68", "procedure": "Matrix Metalloproteinase-1 (MMP-1) is one of collagenases, and is involved in the degradation of the extracellular matrix (ECM). In details, fibroblasts result in the overexpression of MMP-1 after exposure to UV-containing sunlight, so that the ECM is then degraded by MMP-1.\nTo examine the effect of the cyclopeptide of the present disclosure, a series of MMP-1 inhibition test was conducted.\nIn this test, test compound and human fibroblasts were co-cultured, and cytokine tumor necrosis factor-α (TNF-α) was added as an inducer to induce the expression of MMP-1 to a high level. Then, the test compound was evaluated for the ability of reducing the MMP-1 level induced by TNF-α.\nTest compound: cyclopeptide (III-3) of the present disclosure, in which Q is Cl.\nCell Line: Skin Fibroblast Hs68\nFirst, the seeding of skin fibroblast Hs68 cells onto culture medium dish was conducted overnight, and then different concentrations (0.05 μM, 0.25 μM, 1.25 μM, 2.5 μM and 5 μM) of cyclopeptide (III-3) were added to the skin fibroblast cells for 6 hours, which was further incubated with TNF-α (20 ng/mL) for 42 hours."}, "[1]": {"assay": "Cytotoxicity (cell viability) in anti-aging evaluation", "format": "cell-based, human", "details": "human, hs68 human fibroblasts, (sample/control) × 100%", "text": "(§1) Type I collagen is the primary component of the skin dermis. Both the quantity and quality of extracellular collagen are primarily related to skin ageing. The present embodiment was examined, by using Procollagen Type I C-Peptide (PIP) EIA Kit, effects of induction of procollagen secretion and cytotoxicity in respect of hs68 human fibroblasts."}, "hs68 human fibroblasts [2]": {"test_system": "hs68 human fibroblasts", "assay": "Procollagen Type I C-Peptide (PIP) EIA, induction of procollagen secretion", "format": "cell-based", "text": "as §1"}, "hs68 human fibroblasts [3]": {"test_system": "hs68 human fibroblasts", "assay": "Cytotoxicity (cell viability) in anti-aging evaluation", "format": "cell-based", "details": "TGFβ; (sample/control) × 100%", "text": "as §1"}}, "note": "Several values for one entry are separate records, joined by “and”; a condition that tells them apart may be missing. Identical values can stand only once.", "data": [{"compound": "N=C(N)NCCC[C@@H]1NC(=O)C2(CCNCC2)NC(=O)[C@@H](Cc2ccccc2)NC(=O)[C@H](CC(=O)O)NC(=O)CNC1=O", "note": "[III-1]", "values": [{"measurement": "inhibition of MMP-1", "setting": "MMP-1; 0.05 μM", "result": 12, "unit": "%"}, {"measurement": "inhibition of MMP-1", "setting": "MMP-1; 0.25 μM", "result": 38, "unit": "%"}, {"measurement": "inhibition of MMP-1", "setting": "MMP-1; 1.25 μM", "result": 90, "unit": "%"}, {"measurement": "IC50", "setting": "MMP-1", "result": 700, "unit": "nM"}, {"measurement": "MMP-1 Conc.", "setting": "MMP-1; cyclopeptide 0.05 μM", "result": 422.3, "unit": "pg/mL"}, {"measurement": "MMP-1 Conc.", "setting": "MMP-1; cyclopeptide 0.25 μM", "result": 378.2, "unit": "pg/mL"}, {"measurement": "MMP-1 Conc.", "setting": "MMP-1; cyclopeptide 1.25 μM", "result": 288.0, "unit": "pg/mL"}, {"measurement": "MMP-1 Conc.", "setting": "MMP-1; cyclopeptide 2.5 μM", "result": 271.8, "unit": "pg/mL"}]}, {"compound": "CC(C)[C@H]1CC[C@H](C)CC12NC(=O)[C@@H](Cc1ccccc1)NC(=O)[C@H](CC(=O)O)NC(=O)CNC(=O)[C@H](CCCNC(=N)N)NC2=O", "note": "(stereo partly drawn) [III-3]", "values": [{"measurement": "inhibition of MMP-1", "setting": "MMP-1; 0.05 μM", "result": "about 60%"}, {"measurement": "inhibition of MMP-1", "setting": "MMP-1; 0.25 μM", "result": "about 80%"}, {"measurement": "inhibition of MMP-1", "setting": "MMP-1; 1.25 μM", "result": "~87", "unit": "%"}, {"measurement": "inhibition of MMP-1", "setting": "MMP-1; 2.5 μM", "result": "~91", "unit": "%"}, {"measurement": "IC50", "setting": "MMP-1", "result": 20, "unit": "nM"}, {"measurement": "MMP-1 Conc.", "setting": "MMP-1; cyclopeptide 0.05 μM", "result": 337.8, "unit": "pg/mL"}, {"measurement": "MMP-1 Conc.", "setting": "MMP-1; cyclopeptide 0.25 μM", "result": 244.2, "unit": "pg/mL"}, {"measurement": "MMP-1 Conc.", "setting": "MMP-1; cyclopeptide 1.25 μM", "result": 212.7, "unit": "pg/mL"}, {"measurement": "MMP-1 Conc.", "setting": "MMP-1; cyclopeptide 2.5 μM", "result": 194.2, "unit": "pg/mL"}, {"measurement": "MMP-1 Conc.", "setting": "MMP-1; cyclopeptide 5 μM", "result": 168.6, "unit": "pg/mL"}]}, {"compound": "N=C(N)NCCC[C@@H]1NC(=O)C2(CCCCC2)NC(=O)[C@@H](Cc2ccccc2)NC(=O)[C@H](CC(=O)O)NC(=O)CNC1=O", "note": "[III-5]", "values": [{"measurement": "viability at 0.0008 µM", "setting": "[1]; cyclopeptide 0.0008 μM", "result": 92, "unit": "%"}, {"measurement": "viability at 0.004 µM", "setting": "[1]; cyclopeptide 0.004 μM", "result": 97, "unit": "%"}, {"measurement": "viability at 0.02 µM", "setting": "[1]; cyclopeptide 0.02 μM", "result": 100, "unit": "%"}, {"measurement": "viability at 0.1 µM", "setting": "[1]; cyclopeptide 0.1 μM", "result": 97, "unit": "%"}, {"measurement": "viability at 0.25 µM", "setting": "[1]; cyclopeptide 0.25 μM", "result": 99, "unit": "%"}, {"measurement": "viability at 0.5 µM", "setting": "[1]; cyclopeptide 0.5 μM", "result": 100, "unit": "%"}, {"measurement": "Procollagen Type I", "setting": "hs68 human fibroblasts [2]; cyclopeptide 0.0008 μM", "result": 235, "unit": "ng/mL"}, {"measurement": "Procollagen Type I", "setting": "hs68 human fibroblasts [2]; cyclopeptide 0.004 μM", "result": 225, "unit": "ng/mL"}, {"measurement": "Procollagen Type I", "setting": "hs68 human fibroblasts [2]; cyclopeptide 0.02 μM", "result": 220, "unit": "ng/mL"}, {"measurement": "Procollagen Type I", "setting": "hs68 human fibroblasts [2]; cyclopeptide 0.1 μM", "result": 208, "unit": "ng/mL"}, {"measurement": "Procollagen Type I", "setting": "hs68 human fibroblasts [2]; cyclopeptide 0.25 μM", "result": 208, "unit": "ng/mL"}, {"measurement": "Procollagen Type I", "setting": "hs68 human fibroblasts [2]; cyclopeptide 0.5 μM", "result": 184, "unit": "ng/mL"}]}, {"compound": "CC1=C(/C=C/C(C)=C/C=C/C(C)=C/C(=O)O)C(C)(C)CCC1", "note": "[RA, retinoic acid, reference compound]", "values": [{"measurement": "MMP-1 Conc.", "setting": "MMP-1; RA 3.3 μM (positive control)", "result": "155.9 pg/mL and 271.3 pg/mL"}]}, {"compound": "TGFβ [reference compound]", "values": [{"measurement": "Cell viability", "setting": "hs68 human fibroblasts [3]", "result": 95, "unit": "%"}, {"measurement": "Procollagen Type I", "setting": "hs68 human fibroblasts [2]; TGFβ 0.83 μM", "result": 320, "unit": "ng/mL"}]}]}
